Laboratory results reported in patent US11142543B2 (priority 2016, dated 2021).
Marks after values point to notes of the source that are not given here.

Key:
ICR mice [1] = experiment: Tail suspension test (TST), Example 39; format: in vivo; conditions: gavage 10 mg/Kg for 6 days, t-test
Source text: Tail Suspension Test (TST) to Investigate the Antidepressant Activity of Some Compounds and Some Natural Products of the Present Invention
(§1) Male ICR mice (body weight, 20±2 g) used in the experiment were purchased from the Experimental Animal Center of Shanghai Institute of Materia Medica, Chinese Academy of Sciences. They were free access to water and kept at room temperature (23 2) ° C. in natural light. All mice were randomly divided into a blank control group and a test group, with 10 mice in each group and 5 mice/cage. The experiment was started after 3 days of adaptation in the breeding environment. The mice were fasted for 12 hours before the experiment but free access to water. The specific administration method was gavage administration, and the administration dose was 10 mg/Kg, and the blank control group was given an equal volume of 0.5% CMC-Na.
Specific procedures: The mice were continuously administered for 6 days, and tested 1 hour after the last administration. Firstly, the spontaneous activity of the mice was measured by the open field method, that is, the mice were individually placed in a cylindrical glass jar for 4 minutes, and the number of lifting arms within the last 2 minutes was recorded. Then the tail of the mice was stick onto the horizontal bar by the tape at 2 cm from the tip of the tail, and the animal eyesight was separated by the surrounding plates. The horizontal bar was about 25 cm from the ground, so that the mouse was about 10 cm from the ground, and the timing was 6 min. The cumulative immobility time within the last 4 minutes was recorded. Each group of mice was operated in parallel.
Experimental data processing: The experimental results were expressed as mean standard error (x SD). Statistical analysis was performed using t-test to determine whether it was significant. […] Then, the t-test was performed on the experimental index of tail suspension test to determine whether it had antidepressant effect.

ICR mice [2] = experiment: Toxicity observed during antidepressant efficacy screening (FST and TST animal batch); format: in vivo; conditions: same animal batch as efficacy screening, gavage 10 mg/Kg
Source text: as §1, with “dose of the administration group” for “dose”
Male ICR mice (body weight, 20±2 g) used in the experiment were purchased from the Experimental Animal Center of Shanghai Institute of Materia Medica, Chinese Academy of Sciences. They were free access to water and kept at room temperature (23 2) ° C. in natural light. All mice were randomly divided into a blank control group and a test group, with 10 mice in each group and 5 mice/cage. The experiment was started after 3 days of adaptation in the breeding environment. The mice were fasted for 12 hours before the experiment but free access to water. […]

ICR mice [3] = experiment: Forced swimming test (FST), Example 38; format: in vivo; conditions: gavage 10 mg/Kg for 6 days, t-test
Source text: Forced swimming test (FST) to investigate the antidepressant activity of some compounds and some natural products of the present invention
as §1, with “dose of the administration group” for “dose”
Specific procedures: The mice were continuously administered for 6 days, and tested 1 hour after the last administration. Firstly, the spontaneous activity of the mice was measured by the open field method, that is, the mice were individually placed in a cylindrical glass jar for 4 minutes, and the number of lifting arms within the last two minutes was recorded. The mice were then individually placed in a cylindrical glass jar (20 cm high and 14 cm in diameter) with a water depth of 10 cm and a water temperature of 23° C. to 25° C. After mice entered into water, a 6-minute timing was conducted, the cumulative immobility time (the criteria for determining immobility: the mice stopped struggling in the water, or floated with only small limb movements to keep the head float on the water) within the last four minutes was recorded. Each group of mice was operated in parallel.
Experimental data processing: The experimental results were expressed as mean standard error (x SD). Statistical analysis was performed using t-test to determine whether it was significant. […] Then, the t-test was performed on the experimental index of forced swimming to determine whether it had antidepressant effect.

[4] = system: ICR mice with ethanol-induced memory reproduction disorder
Description: Learning memory is an advanced function of the human and animal brains.
Before the retesting after training, the ethanol solution was administered to the mouse to block the memory reproduction process of the animal, resulting in memory reproduction disorder.
Male ICR mice, 16-18 g, were purchased from Shanghai Sippr-BK laboratory animal Co. Ltd.
40 male mice were randomly divided into 4 groups by Excel, and each group contained 10 animals. The mice in group 1 (blank group) and mice in group 2 (model group) were orally administered (i.g.) with drinking water daily.
After 3 weeks of administration, 1 hour after the last administration, the exercise was performed once in the dark avoidance method. The mice were placed in a dark avoidance box, and placed in the bright room with the back facing the hole. At the same time, the video analysis device was activated, and the animal passed through the hole into the dark room and received an electric shock, and the timing was automatically stopped. The mice were removed and the screen analysis would record the time required for each mouse to experience an electric shock from the bright room to the dark room, which was the latency period. After 24 h, the test was carried out, and 45% ethanol solution (0.1 ml/10 g) was orally administered 30 min before the test. The video analysis system would automatically record all relevant data of the animal. Data were expressed as mean standard deviation (x±s), and data difference statistics were analyzed by one-way variance (ANOVA) or X^2 test. The difference between groups was judged by P<0.05.

in vivo = conditions: male, SD, rat
Description: The healthy male SD rats (about 270 g) were fasted for 10 h before administration, and were free to drink water. […] The time points of blood collection from the eye socket were 30 min, 1 h, 2 h, 4 h, 6 h, 8 h, 10 h, 24 h, 48 h after the administration (n=5). […] The time points of blood collection from the eye socket were 5 min, 10 min, 30 min, 1 h, 2 h, 4 h, 8 h (n=4). The plasma was placed in a heparin-coated centrifuge tube, centrifuged for 10 min (8000 r), and the supernatant was taken and stored in a −80° C. refrigerator. After acetonitrile precipitation treatment, it was detected by HPLC-QQQ. The pharmacokinetic parameters, PK parameters of each mouse were calculated by a non-compartmental model of WinNonlin (Pharsight 6.2, NC, USA). All parameters were represented with Mean S.D. Bioavailability (F)=(AUCOral/DoseOral)/(AUCtail vein/Dosetail vein)

rats [5] = experiment: Tail suspension test in rat model, compound C-11 versus fluoxetine, Example 41; format: in vivo; conditions: vs vehicle group, FIG. 4
Description: On the day of the behavioral test, animals were dosed twice and administered orally 4 h and 1 h before the behavioral test. During the experiment, the tail of the rat was hung on a tail suspension test stand about 15 cm away from the ground with a tape or a clip at about 1 cm away from the tail end. […] The experimental time for each group was 6 minutes.

[6] = system: C57 mice susceptible to social defeat by CD-1 aggressive mice; experiment: Social defeated stress (SDS) model, Example 42; format: in vivo; conditions: C-11 10 mg/kg gavage every day, fluoxetine 10 mg/kg intraperitoneally every day, 3 weeks
Description: Male CD-1 aged 4-6 months mice which had passed childbearing age were raised separately, allowed to eat freely and adapt to the environment for about one week. Male C57 mice (aged 8-20 weeks differently) were used to screen for aggressive CD-1 mice. The mice screened by C57 were placed directly in the cage of CD-1 for 3 minutes, and the latency period for CD-1 to start showing offensive was recorded, and then the mice screened by C57 were moved out. For each CD-1 mouse, the same C57 was used to screen it three times a day, and different C57-selected mice were selected every day for a total of three days of screening. […] After screening for CD-1 aggressive mice for modeling, each C57 test mouse was exposed to different CD-1 aggressive mice for 10 consecutive days, 10 minutes each day. […] After 10 minutes of contact, the test mice were isolated from the invaders. Test mice and aggressive mice were placed in adjacent sections of the same squirrel cage, separated by a porous transparent plastic baffle, allowing test mice to be exposed under a threatening chronic stress stimulation for the next 24 hours. The control mice were placed in cages having the same structure, but the other side of the baffle was placed with other mice of the same line that were replaced daily. After 24 hours after the end of the last day of the experiment, we evaluated CSDS-induced social behavioral changes and selected all susceptible mice based on previous reports. The social interaction ratio (SI ratio) was calculated according to the following formula: SI ratio=time for the mouse in the interaction area when the aggressor exists/time for the mouse in the interaction area when the aggressor is absent. […] All selected test mice and control mice were then housed individually for 3 weeks. […] The mice in the vehicle group were administered by gavage with 0.5% CMC-Na every day. The SI ratio was assessed once a week.
Two-way ANOVA was used to analyze and LSD method was used for the multiple comparisons of calibration results. The data were expressed in Mean sem. […]

rats [7] = experiment: Forced swimming test in rat model, compound C-11 versus fluoxetine, Example 41; format: in vivo; conditions: vs vehicle group, FIG. 3
Description: The rats were placed in a cylindrical jar 24 hours before administration to accommodate the underwater environment for 15 min. On the day of the behavioral test, animals were administered twice and administered orally 4 h and 1 h before the behavioral test. The rats were individually placed in a cylindrical glass jar, timed for 6 minutes, and the number of arm lift was recorded within the last 2 minutes. The rats were then placed in a cylindrical glass jar having 30 cm high and 20 cm in diameter. […] Water temperature was 23° C.-25° C.

[8] = i.g. once a day for three consecutive weeks, donepezil 1.6 mg/kg, C-49 15 mg/kg, n = 10

C[C@H]1CC[C@@]2(OC1)O[C@H]1C[C@H]3[C@@H]4CC[C@@H]5C[C@H](NC(=O)NC6CCC(O)CC6)CC[C@]5(C)[C@H]4CC[C@]3(C)[C@H]1[C@@H]2C (stereo partly drawn) [compound C-5]
effect on immobility time of mouse in tail suspension test compared with the blank group (in words) (ICR mice [1]): certain antidepressant activity

C[C@H]1CC[C@@]2(OC1)O[C@H]1C[C@H]3[C@@H]4CC[C@@H]5C[C@H](NC(=O)NN6CCOCC6)CC[C@]5(C)[C@H]4CC[C@]3(C)[C@H]1[C@@H]2C [compound C-7]
effect on immobility time of mouse in tail suspension test compared with the blank group (in words) (ICR mice [1]): certain antidepressant activity

C[C@H]1CC[C@@]2(OC1)O[C@H]1C[C@H]3[C@@H]4CC[C@@H]5C[C@@H](NC(=O)NC6CCCCC6)CC[C@]5(C)[C@H]4CC[C@]3(C)[C@H]1[C@@H]2C [compound C-12]
toxicity observed (ICR mice [2]): No significant toxicity was observed
effect on immobility time of mice in forced swimming test compared with the blank group (in words) (ICR mice [3]): significant antidepressant activity
effect on immobility time of mouse in tail suspension test compared with the blank group (in words) (ICR mice [1]): significant antidepressant activity

C[C@H]1CC[C@@]2(OC1)O[C@H]1C[C@H]3[C@@H]4CC[C@@H]5C[C@H](NC(=O)Nc6ccccc6)CC[C@]5(C)[C@H]4CC[C@]3(C)[C@H]1[C@@H]2C [compound C-13]
effect on immobility time of mice in forced swimming test compared with the blank group (in words) (ICR mice [3]): significantly reduce the immobility time

COC(=O)C1(NC(=O)N[C@@H]2CC[C@@]3(C)[C@H](CC[C@@H]4[C@@H]3CC[C@]3(C)[C@@H]5[C@H](C[C@@H]43)O[C@]3(CC[C@H](C)CO3)[C@H]5C)C2)CCCCC1 [compound C-19]
effect on immobility time of mouse in tail suspension test compared with the blank group (in words) (ICR mice [1]): certain antidepressant activity

C[C@H](CO)CC[C@H]1O[C@H]2C[C@H]3[C@@H]4CC[C@@H]5C[C@H](NC(=O)NC6CCCCC6)CC[C@]5(C)[C@H]4CC[C@]3(C)[C@H]2[C@@H]1C [compound C-23]
effect on immobility time of mice in forced swimming test compared with the blank group (in words) (ICR mice [3]): certain antidepressant activity

C[C@H]1CC[C@@]2(OC1)O[C@H]1C[C@H]3[C@@H]4CC[C@@H]5C[C@H](NC(=O)N(CCO)C6CCCCC6)CC[C@]5(C)[C@H]4CC[C@]3(C)[C@H]1[C@@H]2C [compound C-35]
effect on immobility time of mouse in tail suspension test compared with the blank group (in words) (ICR mice [1]): significantly reduce the immobility time

C[C@H]1CC[C@@]2(OC1)O[C@H]1C[C@H]3[C@@H]4CC[C@@H]5C[C@H](NC(=O)N(CCNC(=O)CN(C)C)C6CCCCC6)CC[C@]5(C)[C@H]4CC[C@]3(C)[C@H]1[C@@H]2C [compound C-49]
improvement effect on learning and memory (in words) ([4]; 15 mg/kg, three weeks, mice with memory reproduction disorder induced by ethanol): significant improvement effect
Number of shocked animals [4, 8]: 3*
Total number of errors (within 5 min) [4, 8]: 3**
Latency period from an open room to a dark room ([4]; i.g. once a day for three consecutive weeks, donepezil 1.6 mg/kg, C-49 15 mg/kg, x ± s, n = 10): 215.8 ± 135.8 s
effect on immobility time of mice in forced swimming test compared with the blank group (in words) (ICR mice [3]): significantly reduced the time immobility
effect on immobility time of mouse in tail suspension test compared with the blank group (in words) (ICR mice [1]): significantly reduce the immobility time
bioavailability (in vivo): 11.1%
AUC (in vivo; iv, 1 mg/kg): 293 ng·h/mL
Cmax (in vivo; iv, 1 mg/kg): 285 ng/mL
Tmax (in vivo; iv, 1 mg/kg): 0.1 h
AUC (in vivo; po, 100 mg/kg): 3120 ng·h/mL
Cmax (in vivo; po, 100 mg/kg): 251 ng/mL
Tmax (in vivo; po, 100 mg/kg): 2.8 ± 1.1 h
MRT (in vivo; po, 100 mg/kg, MRT): 13.6 h
half-life (in vivo; po, 100 mg/kg, T1/2): 9.7 h

CNCCC(Oc1ccc(C(F)(F)F)cc1)c1ccccc1 (stereo not drawn) [fluoxetine]
effect on cumulative immobility time of rats in tail suspension test (rats [5]; dose 1.73 mg/kg oral): had no effect
effect on cumulative immobility time of rats in tail suspension test (rats [5]; dose 3.46 mg/kg oral): had no effect
effect on cumulative immobility time of rats in tail suspension test (rats [5]; dose 6.92 mg/kg oral): significantly affect the cumulative immobility time
mouse social time ([6]; FIG. 5A): did not work during the third week of administration
social proportion of mice (SI ratio) ([6]; FIG. 5B): not effective after three weeks of administration
effect on immobility time of rats in forced swimming test (rats [7]; dose 1.73 mg/kg oral): had no effect
effect on wall climbing behavior of rats in forced swimming test (rats [7]; dose 1.73 mg/kg oral): had no effect
effect on immobility time of rats in forced swimming test (rats [7]; dose 3.46 mg/kg oral): had no effect
effect on wall climbing behavior / wall climbing time of rats in forced swimming test (rats [7]; dose 3.46 mg/kg oral): had no effect
effect on immobility time of rats in forced swimming test (rats [7]; dose 6.92 mg/kg oral): significantly affect
effect on wall climbing behavior of rats in forced swimming test (rats [7]; dose 6.92 mg/kg oral): significantly affect

C[C@H]1CC[C@@]2(OC1)O[C@H]1C[C@H]3[C@@H]4CC[C@@H]5C[C@@H](O)CC[C@]5(C)[C@H]4CC[C@]3(C)[C@H]1[C@@H]2C [sarsasapogenin, reference compound]
effect on immobility time of mice in forced swimming test compared with the blank group (in words) (ICR mice [3]): could not significantly reduce the immobility time
effect on immobility time of mouse in tail suspension test compared with the blank group (in words) (ICR mice [1]): could not significantly reduce the immobility time

C[C@H]1CC[C@@]2(OC1)O[C@H]1C[C@H]3C4CC[C@@H]5C[C@@H](O[C@@H]6OC(CO)[C@H](O)[C@H](O)C6O)CC[C@]5(C)C4CC[C@]3(C)C1[C@@H]2C (stereo partly drawn) [timosaponin A1, reference compound]
effect on immobility time of mice in forced swimming test compared with the blank group (in words) (ICR mice [3]): could not significantly reduce the immobility time
effect on immobility time of mouse in tail suspension test compared with the blank group (in words) (ICR mice [1]): could not significantly reduce the immobility time
